Among the data in patent US8431563B2 (priority 2010, dated 2013) are EC50 and IC50 values, retold here.

Each structure is given as a SMILES string. Read-outs that look alike come from different tables or passages of the source.

Assay [1] deals with T1, GKRP (Glucokinase Regulatory Protein) with human His-hepatic GK (Homo sapiens, UniProt Q14397).
T1 sequence (Q14397 1-625): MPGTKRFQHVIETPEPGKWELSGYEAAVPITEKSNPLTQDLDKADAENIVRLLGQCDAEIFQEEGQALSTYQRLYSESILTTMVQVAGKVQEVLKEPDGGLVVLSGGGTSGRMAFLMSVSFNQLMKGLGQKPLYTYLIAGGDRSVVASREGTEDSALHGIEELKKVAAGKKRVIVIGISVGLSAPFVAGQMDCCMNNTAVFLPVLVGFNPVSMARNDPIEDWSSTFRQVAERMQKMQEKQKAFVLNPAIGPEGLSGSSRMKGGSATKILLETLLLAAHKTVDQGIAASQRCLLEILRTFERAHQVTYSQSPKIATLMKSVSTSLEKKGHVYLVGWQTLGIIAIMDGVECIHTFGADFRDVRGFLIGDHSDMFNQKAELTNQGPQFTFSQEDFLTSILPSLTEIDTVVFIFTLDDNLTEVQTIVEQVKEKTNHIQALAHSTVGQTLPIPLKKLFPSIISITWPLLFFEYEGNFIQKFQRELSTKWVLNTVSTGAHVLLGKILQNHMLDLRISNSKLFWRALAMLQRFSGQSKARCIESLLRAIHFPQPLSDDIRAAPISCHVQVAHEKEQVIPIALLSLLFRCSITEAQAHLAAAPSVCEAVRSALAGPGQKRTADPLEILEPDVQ
Nature of the assay: biochemical. How it is done:
GKRP LC MS/MS-2 Biochemical Assay
This assay is used to directly measure the formation of ^13C-glucose-6-phosphate from ^13C-glucose by LC MS/MS. Begin by preparing the following solutions: Compound Buffer (CB): 50 mM Tris, pH 7.5/4 mM MgCl2/6% DMSO/fresh 10 mM DTT from 1M frozen stock. Enzyme Buffer (EB): 50 mM Tris, pH 7.5/4 mM MgCl2/6% DMSO/fresh 0.1% BSA/fresh 0.01% Brij-35 (10% BSA and 1% Brij-35 stock). GK (Glucokinase) Working Stock (5×): Dilute human His-hepatic GK to 30 nM in EB buffer. […] After 30 minutes add 10 μl of GK Working Stock (5×). Re-seal the plate and incubate for another 30 minutes at room temperature while mixing. After the second 30 minutes, stop the reaction by the addition of 50 μl of 100% acetonitrile, seal, and mix for 5-10 minutes. Run 10 μl of this sample through the LC MS/MS (API 3200, Applied Biosystems, Carlsbad, Calif.).

Assay [2] concerns the target T2, interaction between glucokinase (GK) and glucokinase regulatory protein (GKRP) (Homo sapiens, UniProt Q14397).
T2 sequence (Q14397 1-625): T1 sequence (Q14397 1-625)
Nature of the assay: biochemical. Type of assay: binding. How it is done:
GK-GKRP Binding Assay Protocol
This assay is used to directly measure the interaction between glucokinase (GK) and glucokinase regulatory protein (GKRP). Begin by preparing the following solutions. Assay Buffer: 20 mM Tris, pH 7.5/0.05% BSA/1 mM DTT/1 μM sorbitol-6-phosphate. […] Combine the following reagents in a white 96-well half area plate. Pipette 14 μl of the diluted avi-tagged GKRP into each well. Add 1 μl of compound to be tested and incubate at room temperature for 20 minutes. After 20 minutes, add 5 μl of assay buffer containing 6 nM GK-fluorescein. […] Incubate in a dark room for 2 hours at room temperature. After 2 hours read the plate using an Envision plate reader (Perkin Elmer, Waltham Mass.).

Where [3] appears, read: 13C-glucose-6-phosphate formation, 280 nM GKRP (10×), 30 nM GK (5×), read-out: GK-GKRP EC50 (LC MS/MS-2).
[4] abbreviates: avi-tagged GKRP, GK-fluorescein, AlphaScreen beads, read-out: GK-GKRP IC50 (Binding).
The mark [5] stands for this setting: GK-GKRP EC50 (LC MS/MS-2), 13C-glucose-6-phosphate formation, 280 nM GKRP (10×), 30 nM GK (5×).

Consider `CC(O)(c1ccc(N2CCN(S(=O)(=O)c3cccs3)C[C@@H]2CN2C[C@H]3COC[C@H]3C2)cc1)C(F)(F)F` (stereo partly drawn) [Example 123, 1,1,1-trifluoro-2-(4-((2S)-2-((3aR,6aS)-tetrahydro-1H-furo[3,4-c]pyrrol-5(3H)-ylmethyl)-4-(2-thiophenylsulfonyl)-1-piperazinyl)phenyl)-2-propanol], for which, in assay [1] (GK-GKRP EC50 (LC MS/MS-2)), the EC50 came out at 731 nM. For the same compound, the IC50 (in general, the concentration that inhibits the measured activity by half) in assay [2] (GK-GKRP IC50 (Binding)) stood at 671 nM.

With `CC(C)N(C[C@H]1CN(S(=O)(=O)c2cccs2)CCN1c1ccc(C(C)(O)C(F)(F)F)cc1)S(=O)(=O)N(C)C` (mixture of isomers) [Example 209, N,N-dimethyl-N′-(1-methylethyl)-N′-(((2R)-4-(2-thiophenylsulfonyl)-1-(4-(2,2,2-trifluoro-1-hydroxy-1-methylethyl)phenyl)-2-piperazinyl)methyl)sulfamide], the EC50 in assay [1] (setting [3]) turned out to be 23 nM. The 50% inhibitory concentration (IC50) in assay [2] (setting [4]) was found to be 7 nM.

Regarding `CC(C)N(C[C@H]1CN(S(=O)(=O)c2ccc(N)nc2)CCN1c1ncc(C(O)(C(F)(F)F)C(F)(F)F)cn1)S(C)(=O)=O` [Example 232, N-(((2R)-4-((6-amino-3-pyridinyl)sulfonyl)-1-(5-(2,2,2-trifluoro-1-hydroxy-1-(trifluoromethyl)ethyl)-2-pyrimidinyl)-2-piperazinyl)methyl)-N-(1-methylethyl)methanesulfonamide], the EC50 in assay [1] (setting [3]) stood at 63 nM. Further, in assay [2] (setting [4]), the IC50 was 35 nM.

In the case of `C[C@H]1COCCN1C[C@H]1CN(S(=O)(=O)c2nccs2)CCN1c1ccc(C(C)(O)C(F)(F)F)cc1` (mixture of isomers) [Example 102, 1,1,1-trifluoro-2-(4-((2S)-2-(((3S)-3-methyl-4-morpholinyl)methyl)-4-(1,3-thiazol-2-ylsulfonyl)-1-piperazinyl)phenyl)-2-propanol], in assay [1] (setting [3]), the EC50 stood at 137 nM. Besides, the IC50 in assay [2] (setting [4]) amounted to 134 nM.

Take `O=S(=O)(c1cccs1)N1CCN(c2ccc(C(O)(C(F)(F)F)C(F)(F)F)cc2C#CCCO)CC1` [Example 150, 4-(2-(4-(2-thiophenylsulfonyl)-1-piperazinyl)-5-(2,2,2-trifluoro-1-hydroxy-1-(trifluoromethyl)ethyl)phenyl)-3-butyn-1-ol]: the EC50 in assay [1] (setting [3]) worked out at 895 nM. The half-inhibitory concentration (IC50) in assay [2] (setting [4]) turned out to be 656 nM.

As to `C[C@H]1CN(S(=O)(=O)c2ccc(N)s2)CCN1c1ncc(C(O)(C(F)(F)F)C(F)(F)F)cn1` [Example 89, 2-(2-((2S)-4-((5-amino-2-thiophenyl)sulfonyl)-2-methyl-1-piperazinyl)-5-pyrimidinyl)-1,1,1,3,3,3-hexafluoro-2-propanol], the EC50 in assay [1] (setting [3]) was found to be 161 nM. Also, the IC50 in assay [2] (setting [4]) was found to be 252 nM.

With `Nc1ccc(S(=O)(=O)N2CCN(c3ncc(C(O)(C(F)(F)F)C(F)(F)F)cn3)[C@@H](CC3CCOCC3)C2)s1` [Example 133, 2-(2-((2S)-4-((5-amino-2-thiophenyl)sulfonyl)-2-(tetrahydro-2H-pyran-4-ylmethyl)-1-piperazinyl)-5-pyrimidinyl)-1,1,1,3,3,3-hexafluoro-2-propanol], in assay [1] (setting [5]), the EC50 stood at 59 nM. For the same compound, the IC50 in assay [2] (setting [4]) came to 47 nM.

`C[C@H]1CN(S(=O)(=O)c2cccs2)CCN1c1ncc(C(O)(C(F)(F)F)C(F)(F)F)cn1` [Example 94, 1,1,1,3,3,3-hexafluoro-2-(2-((2S)-2-methyl-4-(2-thiophenylsulfonyl)-1-piperazinyl)-5-pyrimidinyl)-2-propanol]: the EC50 in assay [1] (setting [3]) was determined as 470 nM. In addition, the IC50 in assay [2] (setting [4]) was 362 nM.

On to `CC(C)N(C[C@H]1CN(S(=O)(=O)c2ccc(N)s2)CCN1c1ncc(C(O)(C(F)(F)F)C(F)(F)F)cn1)S(C)(=O)=O` [Example 231, N-(((2R)-4-((5-amino-2-thiophenyl)sulfonyl)-1-(5-(2,2,2-trifluoro-1-hydroxy-1-(trifluoromethyl)ethyl)-2-pyrimidinyl)-2-piperazinyl)methyl)-N-(1-methylethyl)methanesulfonamide], for which the EC50 in assay [1] (setting [3]) worked out at 20 nM. Also, the IC50 in assay [2] (setting [4]) is 7 nM.

On to `COC1C[C@H]2COC[C@@H](C1)N2C[C@H]1CN(S(=O)(=O)c2cccs2)CCN1c1ccc(C(C)(O)C(F)(F)F)cc1` (stereo partly drawn) [Example 109, 1,1,1-trifluoro-2-(4-((2S)-2-(((1R,5S)-7-methoxy-3-oxa-9-azabicyclo[3.3.1]non-9-yl)methyl)-4-(2-thiophenylsulfonyl)-1-piperazinyl)phenyl)-2-propanol (endo)], for which the EC50 in assay [1] (setting [3]) was found to be 81 nM. Besides, the IC50 in assay [2] (setting [4]) stood at 72 nM.

On to `CC(O)(c1ccc(N2CCN(S(=O)(=O)c3cccs3)C[C@@H]2CS(=O)(=O)c2cccc(F)c2)cc1)C(F)(F)F` (mixture of isomers) [Example 189 Peak#1, 1,1,1-trifluoro-2-(4-((2R)-2-(((3-fluorophenyl)sulfonyl)methyl)-4-(2-thiophenylsulfonyl)-1-piperazinyl)phenyl)-2-propanol], for which the EC50 in assay [1] (setting [3]) stood at 235 nM. For the same compound, the IC50 in assay [2] (setting [4]) worked out at 374 nM.

Turning to `CC(O)(c1ccc(N2CCN(S(=O)(=O)c3cccs3)C[C@@H]2CN2CCS(=O)(=O)CC2C2CC2)cc1)C(F)(F)F` (mixture of isomers) [Example 87, 2-(4-((2S)-2-((3-cyclopropyl-1,1-dioxido-4-thiomorpholinyl)methyl)-4-(2-thiophenylsulfonyl)-1-piperazinyl)phenyl)-1,1,1-trifluoro-2-propanol], the EC50 in assay [1] (setting [3]) was 246 nM. Besides, in assay [2] (setting [4]), the IC50 turned out to be 229 nM.

Take `CS(=O)(=O)NCC#Cc1cc(C(O)(C(F)(F)F)C(F)(F)F)ccc1N1CCN(S(=O)(=O)c2cccs2)CC1` [Example 160, N-(3-(2-(4-(2-thiophenylsulfonyl)-1-piperazinyl)-5-(2,2,2-trifluoro-1-hydroxy-1-(trifluoromethyl)ethyl)phenyl)-2-propyn-1-yl)methanesulfonamide]: the EC50 in assay [1] (setting [3]) amounted to 412 nM. Besides, the IC50 in assay [2] (setting [4]) turned out to be 783 nM.

In the case of `CC(C)CN(C[C@H]1CN(S(=O)(=O)c2cccs2)CCN1c1ccc(C(C)(O)C(F)(F)F)cc1)S(C)(=O)=O` (mixture of isomers) [Example 201, N-(2-methylpropyl)-N-(((2S)-4-(2-thiophenylsulfonyl)-1-(4-(2,2,2-trifluoro-1-hydroxy-1-methylethyl)phenyl)-2-piperazinyl)methyl)methanesulfonamide], the EC50 in assay [1] (setting [3]) is 14 nM. The IC50 in assay [2] (setting [4]) came to 4 nM.

Take `CC(O)(c1ccc(N2CCN(S(=O)(=O)c3cccs3)CC2CN2C3COCC2C(O)C3)cc1)C(F)(F)F` (single isomer, unassigned) [Example 77 Peak #3]: in assay [1] (setting [3]), the EC50 amounted to 58 nM. Further, the IC50 in assay [2] (setting [4]) was 29 nM.

On to `CC(O)(c1ccc(N2CCN(S(=O)(=O)c3cccs3)C[C@@H]2CNS(=O)(=O)c2ccccc2)cc1)C(F)(F)F` (mixture of isomers) [Example 193, N-(((2S)-4-(2-thiophenylsulfonyl)-1-(4-(2,2,2-trifluoro-1-hydroxy-1-methylethyl)phenyl)-2-piperazinyl)methyl)benzenesulfonamide], for which the EC50 in assay [1] (setting [5]) was 374 nM. For the same compound, in assay [2] (setting [4]), the IC50 was 284 nM.

On to `O=S(=O)(c1ccccc1)N1CCN(c2ncc(C(O)(C(F)(F)F)C(F)(F)F)cn2)[C@@H](CN2C3COCC2C(O)C3)C1` (mixture of isomers) [Example 80, 8-(((2S)-4-(phenylsulfonyl)-1-(5-(2,2,2-trifluoro-1-hydroxy-1-(trifluoromethyl)ethyl)-2-pyrimidinyl)-2-piperazinyl)methyl)-3-oxa-8-azabicyclo[3.2.1]octan-6-ol], for which the EC50 in assay [1] (setting [3]) was 136 nM. The IC50 in assay [2] (setting [4]) was 125 nM.

Take `CC(O)(c1ccc(N2CCN(S(=O)(=O)c3cccs3)C[C@@H]2C[S+]([O-])c2ccc(F)cc2)cc1)C(F)(F)F` (single isomer, unassigned) [Example 191 Peak#3]: in assay [1] (setting [3]), the EC50 was 262 nM. Further, the IC50 in assay [2] (setting [4]) was found to be 259 nM.
